In patent publication US20060258735A1, “1,3-Bis-(substituted-phenyl)-2-propen-1-ones and their use to treat VCAM-1 mediated disorders” (priority 2000, published 2006):

What was measured:
[1] = test system: eosinophil recruitment; test: Mouse peritonitis model (ovalbumin, eosinophil recruitment); assay type: in vivo; settings: 50 mg/kg/dose subcutaneous at -24, -2, +2 and +6 hrs around ovalbumin challenge; Balb/C mice; 48 hrs post-challenge; FIG. 2
Procedure: (§1) Balb/C mice (n=10) were sensitized to ovalbumin on days 0 and 7 with a subcutaneous injection of ovalbumin absorbed in aluminum hydroxide. They were then challenged with an intraperitoneal injection of ovalbumin and sacrificed 48 hrs post-challenge. Peritoneal fluid was then collected and spun down onto slides. Slides were stained with DiffQuik and a differential performed. The test compound was administered by subcutaneously injection −24, −2, +2 and +6 hrs around the time of ovalbumin challenge. This is a model of allergic inflammation as eosinophils are the major leukocyte recruited into the peritoneum.
as §1, with “compound wase” for “compound was”

[2] = test system: paw edema; test: Paw edema model (delayed type hypersensitivity, metBSA); assay type: in vivo; settings: 50 mg/kg/dose intraperitoneal at -24, -2 and +6 hrs around metBSA challenge; Balb/C mice; 24 hours after challenge; FIG. 3
Procedure: Balb/C mice (n=5) were sensitized intradermally on day 0 with methylated BSA (metBSA). They were then challenged with metBSA on day 7 in the right hind paw. The animals were sacrificed 24 hours later and the left and right hind paws weighed. The left hindpaw weight is subtracted from the right hind paw to give the paw weight increase. The test compound was administered by intraperitoneal injection −24, −2 and +6 hrs around the time of metBSA challenge.

With `COc1cc(OC)c(-c2cc3ccccc3s2)cc1/C=C/C(=O)c1cc(OC)c(OC)c(OC)c1` [3-[5-(benzo[b]thien-2-yl)-2,4-dimethoxyphenyl]-1-(3,4,5-trimethoxyphenyl)-2-propen-1-one] the “inhibition of eosinophil recruitment (percent eosinophils in the peritoneal fluid)” value [1] was “inhibition of eosinophil recruitment” and the “inhibition of paw edema (paw weight increase)” value [2] was “inhibition of paw edema”.
